The subject of one test is LCFA oxidation in BMDMs. Briefly: 9,10-3H-palmitate oxidation (3H2O release) in BMDMs. Format: cell-based, mouse. Particulars: 3 μM etomoxir. The protocol: BMDMs at day 6 of differentiation were seeded at 3×10^5 cells/well in 12 well plates in BMDM media. The next day, cells were treated in DMEM containing 25 mM glucose supplemented with 5% FBS, 2 mM L-Glutamax, 100 units/mL, 100 μg/mL penicillin/streptomycin, 1 mM of sodium pyruvate, 1 mM carnitine, and 5% v/v conditioned media containing macrophage colony stimulating factor (M-CSF) under one of 5 conditions: control, 20 ng/mL of IL-4±3 μM or 200 μM of etomoxir, or 200 nM rotenone, or 200 nM antimycin A for 24 hr. Fatty acid oxidation was measured 24 hours later as previously described (Rognstad, R. (1991) Estimation of peroxisomal and mitochondrial fatty acid oxidation in rat hepatocytes using tritiated substrates. Biochem J 279:147-150, 1991; Cha, B. S., Ciaraldi, T. P., Park, K. S., Carter, L., Mudaliar, S. R., and Henry R R. (2005) Impaired fatty acid metabolism in type 2 diabetic skeletal muscle cells is reversed by PPARgamma agonists. Am J Physiol Endocrinol Metab. 289, E151-9) following a fluid change to DMEM with components as described above except 10 mM glucose and 0.2 μCi (final concentration of 5 μM) BSA-conjugated [9,10-3H]palmitic acid. No additional IL-4 was added at the time of this fluid change, but etomoxir, rotenone and antimycin A were added, and the plates were placed in a […] incubator at 37° C. for 3 hr. After incubation, a 100 μL aliquot of the culture medium was passed over an ion-exchange resin, and the column was washed twice with 0.75 ml of water. Free fatty acids were retained by the resin, whereas the tritium hydrolyzed from radiolabeled palmitate catabolism was released as labeled water, which passes freely through the resin, and is subsequently counted for radioactivity. All data are corrected for protein content in each well. There were 3 technical replicates for each condition, and 4 biological replicates arising from 4 separate animals.

In test [1] the test system is Relma, Mgl2, Ym1, Fabp4, Arg1 expression. Briefly: qPCR of IL-4-associated genes in BMDMs. The class given is cell-based, mouse. The protocol:
For all gene expression and flow cytometry experiments described below, day 6 BMDM were plated at 3×10^5 cell/well in 12-well plates. The next day, cells were treated with appropriate compounds (and duration as indicated in figures and below) in DMEM supplemented with 5% FBS, 2 mM L-glutamine, 100 units/mL, 100 μg/mL penicillin/streptomycin, 500 μM of sodium pyruvate and 5% v/v conditioned media containing macrophage colony stimulating factor (M-CSF).
For flow cytometry experiments involving etomoxir (FIG. 1G, FIG. 2A, FIG. 2D, FIG. 3A, FIG. 3B, FIG. 3G, FIG. 3H): BMDMs were mock-treated (media replacement only) or treated with 20 ng/mL of IL-4±3 μM or 200 μM of etomoxir for 48 hr. When measuring expression of M(IL-4)-associated genes in response to etomoxir (FIG. 1H, FIG. 2B), BMDMs were mock-treated or treated with 20 ng/mL of IL4±etomoxir as indicated for 24 hr.
For experiments involving respiratory chain inhibitors: BMDMs were mock-treated (media replacement only) or treated with 20 ng/mL of IL4±1.2 μM oligomycin (Oligo), 200 nM rotenone (Rot), 200 nM antimycin A (AntiA), 100 nM piericidin A (PierA), or 5 μM carboxyatractylate (CAT) for either 24 (FIG. 4G, FIG. 4H, FIG. 6G) or 48 hr (FIG. 4F, FIG. 7D). All inhibitors were given as co-treatments simultaneously with IL-4.
RNA was isolated with TRIzol, then cDNA was synthesized with high-capacity cDNA reverse transcription kit. KAPA SYBR FAST qPCR Master Mix kit and a LightCycler 480 were used for quantitative RT-PCR. Fold change related to the control group was calculated using […] with 36b4 as the reference gene.

For another test, the system named is respiratory complex I. Description: Respiration in double-permeabilized HepG2 cells. The class given is biochemical. Particulars: 100 μM etomoxir. The protocol: When permeabilized cells were treated with alamethicin to form pores of 3-6 kDa in the mitochondrial inner membrane (“double-permeabilized” cells) and complex I-mediated respiration was directly assessed (FIG. 6F), 10 μg/mL alamethicin was added at 37° C. 15 minutes prior to measurements (Divakaruni, A. S., Andreyev, A. Y., Rogers, G. W., and Murphy, A. N. (2017a) In situ measurements of mitochondrial matrix enzyme activities using plasma and mitochondrial membrane permeabilization agents. Anal. Biochem. 17, 30385-8). Double-permeabilized cells were offered 10 μM cytochrome c in the experimental medium and either 10 mM NADH or 10 mM succinate with 2 μM rotenone to drive respiration.

Test [2] concerns BMDMs. Briefly: ADP- or FCCP-stimulated respiration in permeabilized WT, Cpt1a-/- and Cpt2-/- BMDMs. Format: cell-based, mouse. Conditions: 200 μM etomoxir; independent of CPT-1 activity; also stated for Treg cells.
The subject of test [3] is BMDMs. Description: Intracellular free coenzyme A levels in BMDMs. Format: cell-based, mouse. Conditions: 200 μM etomoxir, IL-4, 20 hr. The protocol:
On Day 6 of differentiation, BMDMs were seeded at 1.2×10^6 cells/well in 6-well plates. 24 hr later, BMDMs were mock-treated or co-treated with 20 ng/mL IL-4±200 μM etomoxir±500 μM CoA in DMEM supplemented with 5% FBS, 2 mM L-glutamine, 100 units/mL, […] penicillin/streptomycin, 500 μM of sodium pyruvate and 5% v/v conditioned media containing macrophage colony stimulating factor (M-CSF) for 20 hr. Prior to sample collections, cells were washed with 600 μL of 0.9% (w/v) NaCl twice. Three wells per replicate per treatment were combined in 2 mL centrifuge tubes and centrifuged at 500 g for 5 mins at 4° C. The supernatant was removed, and the cell pellet was re-suspended in 75 μL of ice-cold 0.7% (v/v) perchloric acid for 5 min. Samples were then centrifuged at 10,000 g for 7 mins at 4° C. and the resulting supernatant was adjusted to pH 7 with 2M NaOH and 500 mM K2HPO4. The coenzyme A concentration was determined with Coenzyme A Assay Kit following manufacturer's instructions (Sigma MAK034) using 40 μL of sample supernatant. Coenzyme A levels were normalized to total cellular protein (BCA method).

The next test concerns CPT-1a and CPT-1b. Conditions: upon enzymatic conversion to etomoxiryl CoA; cited from earlier work.

“Also recorded” adds a separate entry of the source.

A word on the IC50: it is the concentration that gives 50% inhibition. Turning to `CCOC(=O)[C@@]1(CCCCCCOc2ccc(Cl)cc2)CO1` [etomoxir], the “3H2O release from tritiated palmitate” value with LCFA oxidation in BMDMs is “effectively suppress”. In addition, in test [1] (3 μM etomoxir, IL-4, 24 hr), the “gene expression of Relma, Mgl2, Ym1, Fabp4, Arg1” value is reported as “no change”. In test [1] (200 μM etomoxir, IL-4, 24 hr), the “Fabp4 and Arg1 expression” value is recorded as “no change”; the “Relma, Mgl2, Ym1 expression” value is given as “blocked the induction; also recorded: significantly decreased”. Besides, the Fabp4 expression result in test [1] (etomoxir, IL-4) is recorded as “unresponsive”. Besides, in the test with respiratory complex I, the “oxidation of NADH” value is on record as “inhibit oxidation of NADH”. Moreover, the “phosphorylating and uncoupled respiration” value in the test on BMDMs [2] is “pronounced off-target effect on phosphorylating respiration with a secondary effect at uncoupled respiration”. The “intracellular free CoA levels” value in the test on BMDMs [3] is “significantly dropped”. Besides, the IC50 with CPT-1a and CPT-1b was 10 to 700 nM.
